This is an account of results in patent US9394297B2, “Amides as pim inhibitors” (AMGEN INC., priority 2012, dated 2016).

One test has as its target Pim-1 (Homo sapiens (Human), UniProt P11309). Description: Pim-Mn enzyme assay (HTRF, 384-well), Pim-1. The settings on record: Pim-1 enzyme 5 pM, ATP 1.5 μM, BAD (S112) 0.5 μM, HTRF, 22-point curve; read-out: Pim-1-Mn IC50 IP. Format: biochemical. Background: Time-resolved FRET reads energy transfer from a long-lived donor to a nearby acceptor.
The target of the next test is Pim-2 (Homo sapiens (Human), UniProt Q9P1W9). Description: Pim-Mn enzyme assay (HTRF, 384-well), Pim-2. Format: biochemical. The settings on record: Pim-2 enzyme 0.5 pM, ATP 1.5 μM, BAD (S112) 0.5 μM, HTRF, 22-point curve; read-out: Pim-2-Mn IC50 IP.

pIC50: −log10 of the molar value. Structures can show the parent of a compound that is named as a salt.

Sequence of Pim-2 (Q9P1W9 whole entry): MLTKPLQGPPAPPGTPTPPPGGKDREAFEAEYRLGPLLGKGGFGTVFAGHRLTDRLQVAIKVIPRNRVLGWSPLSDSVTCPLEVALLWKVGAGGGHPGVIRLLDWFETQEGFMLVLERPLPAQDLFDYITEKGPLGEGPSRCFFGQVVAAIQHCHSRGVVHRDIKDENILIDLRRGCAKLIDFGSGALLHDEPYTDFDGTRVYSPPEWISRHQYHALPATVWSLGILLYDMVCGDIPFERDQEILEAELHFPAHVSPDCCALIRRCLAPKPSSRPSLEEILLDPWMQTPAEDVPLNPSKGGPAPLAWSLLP
Sequence of Pim-1 (P11309 whole entry): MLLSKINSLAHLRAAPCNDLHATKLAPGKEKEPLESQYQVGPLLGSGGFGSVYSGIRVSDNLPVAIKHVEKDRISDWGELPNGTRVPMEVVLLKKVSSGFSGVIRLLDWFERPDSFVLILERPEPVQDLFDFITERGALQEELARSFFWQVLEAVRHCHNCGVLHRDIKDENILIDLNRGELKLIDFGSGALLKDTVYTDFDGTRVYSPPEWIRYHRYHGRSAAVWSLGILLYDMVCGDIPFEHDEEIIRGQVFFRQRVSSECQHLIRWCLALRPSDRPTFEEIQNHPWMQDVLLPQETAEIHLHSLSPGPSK

Usually pIC50 stands for the IC50 on a negative log10 scale, so that one unit is a factor of ten. `Cc1nc2cccc(-c3cc4c([nH]3)CCNC4=O)c2nc1N[C@H]1CC[C@H]1N` (racemic) [Example 54, rac-2-(3-((cis-2-aminocyclobutyl)amino)-2-methyl-5-quinoxalinyl)-1,5,6,7-tetrahydro-4H-pyrrolo[3,2-c]pyridin-4-one]: the pIC50 on Pim-1 is 8.89; on Pim-2, 8.54. On the same counts, the results for `Cc1nc2cccc(-c3cc4n(c3)C(CCO)CNC4=O)c2nc1NC(C)(C)C` (racemic) [Example 235, (±)-7-(3-(tert-butylamino)-2-methyl-5-quinoxalinyl)-4-(2-hydroxyethyl)-3,4-dihydropyrrolo[1,2-a]pyrazin-1(2H)-one] are 8.02 and 7.84. Turning to `Cc1nc2cccc(-c3cc4c([nH]3)C(Cc3ccc(Cl)cc3)CNC4=O)c2nc1N` (racemic) [Example 273, rac-2-(3-amino-2-methyl-5-quinoxalinyl)-7-(4-chlorobenzyl)-1,5,6,7-tetrahydro-4H-pyrrolo[3,2-c]pyridin-4-one], the pIC50 at Pim-1 was 7.41; on Pim-2, 7.72. The matching figures for `CC#CCC1CNC(=O)c2cc(-c3cccc4nc(C)c(NC(C)(C)C)nc34)[nH]c21` (racemic) [Example 278, rac-2-(3-(tert-butylamino)-2-methyl-5-quinoxalinyl)-7-(2-butyn-1-yl)-1,5,6,7-tetrahydro-4H-pyrrolo[3,2-c]pyridin-4-one]: 8.51 and 7.98.

On to `CC#CCC1CNC(=O)c2cc(-c3cccc4nc(C)c(F)nc34)[nH]c21` (racemic) [Example 280, rac-7-(2-butyn-1-yl)-2-(3-fluoro-2-methyl-5-quinoxalinyl)-1,5,6,7-tetrahydro-4H-pyrrolo[3,2-c]pyridin-4-one], for which the figures for the pIC50 on Pim-1 and at Pim-2 were 6.08 and 6.15, respectively. Take `C[C@H]1NC(=O)c2cc(-c3cccc4c(=O)n(C)c(N[C@H]5CCC[C@@H](N)C5)nc34)[nH]c21` (racemic) [Example 506, (rac)-2-(((cis)-3-aminocyclohexyl)amino)-3-methyl-8-((6R)-6-methyl-4-oxo-1,4,5,6-tetrahydropyrrolo[3,4-b]pyrrol-2-yl)-4(3H)-quinazolinone]: the pIC50 at Pim-2 is 10.00.

In the case of `C[C@H]1NC(=O)c2cc(-c3cccc4c(=O)n(C)c(N[C@@H]5CCC[C@H](NC(=O)OC(C)(C)C)C5)nc34)[nH]c21` (racemic) [Example 509, (rac)-tert-butyl ((cis)-3-((3-methyl-8-((R)-6-methyl-4-oxo-1,4,5,6-tetrahydropyrrolo[3,4-b]pyrrol-2-yl)-4-oxo-3,4-dihydroquinazolin-2-yl)amino)cyclohexyl)carbamate], the pIC50 at Pim-1 is 7.85; at Pim-2, 7.82. Take `Cc1nc2cccc(-c3cc4c([nH]3)CCNC4=O)c2nc1N[C@H]1C[C@H](N)C1` [Example 437, 2-(3-(((1r,3r)-3-aminocyclobutyl)amino)-2-methylquinoxalin-5-yl)-6,7-dihydro-1H-pyrrolo[3,2-c]pyridin-4(5H)-one hydrochloride]: the pIC50 on Pim-1 is 9.30. On the same count and under the same terms, in the case of `Cc1nc2cccc(-c3cc4c([nH]3)[C@@H](C)NC4=O)c2nc1N[C@H]1CCC[C@@H](NCC(F)(F)F)C1` [Example 487, (6R)-6-methyl-2-(2-methyl-3-(((1S,3R)-3-((2,2,2-trifluoroethyl)amino)cyclohexyl)amino)-5-quinoxalinyl)-5,6-dihydropyrrolo[3,4-b]pyrrol-4(1H)-one] it was 9.30.

Regarding `C[C@H]1NC(=O)c2cc(-c3c(F)ccc4c(=O)n(C5CC5)c(NC5(C)CCC5)nc34)[nH]c21` [Example 498, 3-Cyclopropyl-7-fluoro-2-((1-methylcyclobutyl)amino)-8-((6R)-6-methyl-4-oxo-1,4,5,6-tetrahydropyrrolo[3,4-b]pyrrol-2-yl)-4(3H)-quinazolinone], the pIC50 at Pim-1 is 10.15. On to “(R)-2-(3-(cyclopropylamino)-6-fluoro-2-methylquinoxalin-5-yl)-6-methyl-5,6-dihydropyrrolo[3,4-b]pyrrol-4(1H)-one [Example 284]”, for which, at Pim-1, the pIC50 was 8.92.
